Key:
TNF-α = test: Inhibition of LPS induced TNF-α production in mice in vivo; details: Female Balb/c mice, subcutaneous, LPS 50 µg/mouse i.p. after 1 h, serum TNF-α 1.5 h later
Experimental: The activity of compounds of this invention in inhibiting the TNF-α release was determined, using a minor modification of the methods described in Zanetti, G.; Heumann, D., et. al., "Cytokine production after intravenous or peritoneal Gram-negative bacterial challenge in mice" J. Immunol., 148, 1890, (1992) and Sekut, L., Menius, J.A., et. al., "Evaluation if the significance of elevated levels of systemic and localized tumor necrosis factor in different animal models of inflammation" J. Lab. Clin. Med., 124, 813, (1994).
Female Balb/c mice were anesthetized and injected subcutaneously with the test compounds dissolved in CMC vehicle or hydroxypropylmethyl cellulose based vehicle. Control animals received only the vehicle. After 1 h, LPS (50 µg/ mouse, Sigma #13129, Sigma Chemical Co., St. Louis, MO) was injected intraperitoneally. After 1.5 h, blood was collected from the retro-orbital plexus region of the animals in a microtainer serum separator tube (Becton Dickinson, Cat. No. #5960, Becton Dickinson & Co., Franklin Lakes, NJ). The sera was separated and the amount of TNF-α was determined using the EM-TNFA® kit (Endogen, Woburn, MA) by following the manufacturer's protocol.

collagen matrix [1] = test: Cartilage plug degradation in vivo (cartilage plug implant assay, hydroxyproline content); details: cartilage plug implant in female Lewis rats, terminated after 8 or 9 days; hydroxyproline content relative to vehicle group
TNF = test: Inhibition of TNF release in vitro (LPS/PMA stimulated Monomac 6 cells); assay type: cell-based; details: Homo sapiens, MONO-MAC-6, Conc. 10 µM, 2 h
Experimental: The activity of compounds of this invention in inhibiting the TNF release was determined, using the a minor modification of the method described in Pradines-Figueres, A. and Raetz, C.R.H., J. Biol. Chem., 267 (32), 23261, (1992).
Human Monomac 6 cells (Ziegler-Heitbrock, H.W.L., et al., Int. J. Cancer, 41, 456, (1988)) were cultured at 37 °C in RPMI 1640 medium containing 10% fetal calf serum to a density of 1 x 10^5 cells/ml. 0.23 ml of these cells were placed in each well of a tissue culture plate and the cells were incubated for 15 min. The test compounds were dissolved in above mentioned medium and added and the incubation was continued for an additional 15 min. 10 µl of an lipopolysaccharide/phorbol-12-myristate -13-acetate (LPS/PMA) mixture was added such that the final concentration of lipopolysaccharide was 10 ng/ml and the final concentration of phorbol-12-myristate -13-acetate was 30 ng/ml. The cells were incubated for 2 h after which the plate was centrifuged and the medium was removed and analyzed for TNF content. The analysis was performed using a TNF Quantikine® Immunoassay (R & D Systems, Minneapolis, MN 55413) by following the manufacturer's protocol.

collagen matrix [2] = test: Degradation of cartilage plug in vitro (IL-1-α stimulated cartilage explants, hydroxyproline content); assay type: cell-based; details: bovine cartilage explants stimulated with IL-1-α 20 ng/ml, 21 days; compounds at concentrations between 10 and 300 nm; hydroxyproline content relative to control
Experimental: The ability of the compounds of this invention to inhibit the degradation of the collagen matrix (as judged by release of hydroxyproline) was determined by the cartilage plug degradation assay in vitro by following a slight modification of the method described in Spirito, S., Doughty, E., et al., "Metalloproteinase inhibitors halt collagen breakdown in IL-1 induced bovine nasal cartilage cultures" Inflamm.
The cultures were stimulated with IL-1-α at a final concentration of 20 ng/ml. Compounds of Formula (I), were added at concentrations between 10 and 300 nm in DMSO. The control samples contained only IL-1-α. […] The cartilage plugs were removed, hydrolyzed and the hydroxyproline content was determined. The MMP inhibitory activity of test materials is the measure of the hydroxyproline content in the test group relative to the vehicle treated group (control group).

human collagenase-1 = test: Inhibition of matrix metalloproteases in vitro: collagenase-1; assay type: biochemical; details: hydrolysis of MCA-Pro-Leu-Gly-Leu-DPA-Ala-Arg-NH2 at 37 °C; read-out: Collagenase-I IC50
Experimental: The matrix metalloprotease enzyme was diluted with assay buffer (50 mM Tricine pH 7.5, 200 mM NaCl, 10 mM CaCl2, and 0.005% Brij-35) containing 10 µmole of above substrate dissolved in DMSO.

human collagenase-3 = test: Inhibition of matrix metalloproteases in vitro: human collagenase-3; assay type: biochemical; details: hydrolysis of MCA-Pro-Leu-Gly-Leu-DPA-Ala-Arg-NH2 at 37 °C; species of collagenase-III not given

O=CN1CCN(S(=O)(=O)N2CCC(C(=O)c3ccc(Cl)cc3)CC2)C(C(=O)NO)C1 (stereo not shown) [compound 262]
% inhibition (TNF-α): 50%

CN(C)C(=O)N1CCN(S(=O)(=O)N2CCC(c3c[nH]c4c(F)c(F)c(F)c(F)c34)CC2)[C@@H](C(=O)NO)C1 [compound 309]
% inhibition (TNF-α): 46%

CC(C)[C@@H](NS(=O)(=O)N1CCN(c2ccc(OCc3ccccc3)cc2)CC1)C(=O)NO [compound 74, N-hydroxy-2-(R)-{[4-(4-benzyloxyphenyl)piperazine-1-sulfonyl]amino}-3-methylbutyramide]
% protection (collagen matrix [1]): 46% | inhibition at 10 µM (TNF): 17%

N#Cc1ccc2[nH]cc(C3CCN(S(=O)(=O)N4CCCC[C@@H]4C(=O)NO)CC3)c2c1 [compound 294]
% inhibition (TNF-α): 90%

CC(C)[C@@H](NS(=O)(=O)N1CCN(c2ccc(Cl)cn2)CC1)C(=O)NO [compound 50]
% protection (collagen matrix [2]): 71% | % protection (collagen matrix [1]): 70%

O=C(NO)C1CCCCN1S(=O)(=O)N1CCN(c2ccc(Cl)cc2)CC1 (racemic) [compound 234]
% inhibition (TNF-α): 46%

O=C(NO)[C@H]1CCCCN1S(=O)(=O)N1CCCC1 [compound 232]
% inhibition (TNF-α): 73%

CC(C)[C@@H](NS(=O)(=O)N1CCN(c2ccc(Cl)cc2)CC1)C(=O)NO [compound 51]
% protection (collagen matrix [2]): 35% | % protection (collagen matrix [1]): 45%

CC(C)[C@H](C(=O)NO)N(Cc1ccccc1)S(=O)(=O)N1CCCCC1 [compound 1, N-hydroxy-2-(R)-[benzyl-(piperidine-1-sulfonyl)amino]-3-methylbutyramide]
inhibition at 10 µM (TNF): < 15%

CC(C)[C@@H](NS(=O)(=O)N1CCC(Oc2ccc(F)cc2)CC1)C(=O)NO [compound 179]
% protection (collagen matrix [1]): 63%

CC(C)[C@@H](NS(=O)(=O)N1CCN(c2ccc(OCc3ccncc3)cc2)CC1)C(=O)O [compound 413]
IC50 (human collagenase-1): 9.3 µM | IC50 (human collagenase-3): 0.26 µM

O=C(c1ccc(Cl)cc1)C1CCN(S(=O)(=O)N2CCCC[C@@H]2C(=O)NO)CC1 [compound 242]
% protection (collagen matrix [2]): 27%
